# Values joined by “and” are separate entries in the source; they are usually repeats but may differ in a detail not shown here. Equal values may be shown once. No end group written: not given here.
# Columns and labels:
# [1] = target: Frog MOR (rpMOR) (Lithobates pipiens, UniProt Q7T069); test: cell-based; set-up: species or system Rana pipiens
# [2] = test system: Frog DOR; type: cell-based, Rana pipiens; conditions: Table 2, HEK 293T cells; for EC50: NA = not active
# [3] = target: Frog KOR (Lithobates pipiens, UniProt B0JCV9); test: Inhibition of isoproterenol-induced cAMP production; type: cell-based, Rana pipiens
# Sequence of Frog KOR (B0JCV9 1-390): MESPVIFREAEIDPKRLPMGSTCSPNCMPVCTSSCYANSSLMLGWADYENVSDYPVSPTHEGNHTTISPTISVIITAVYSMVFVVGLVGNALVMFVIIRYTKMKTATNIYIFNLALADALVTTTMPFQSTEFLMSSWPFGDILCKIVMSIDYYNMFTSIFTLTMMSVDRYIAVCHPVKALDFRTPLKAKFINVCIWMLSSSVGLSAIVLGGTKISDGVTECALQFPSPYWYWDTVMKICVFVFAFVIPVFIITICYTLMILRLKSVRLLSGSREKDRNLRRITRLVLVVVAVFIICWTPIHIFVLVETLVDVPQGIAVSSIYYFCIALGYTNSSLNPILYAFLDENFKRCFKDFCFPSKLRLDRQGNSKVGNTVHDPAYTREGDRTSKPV
# [4] = test system: h-rpMOR-wt (rpMOR with humanized N-terminus); test: Inhibition of isoproterenol-stimulated cAMP response, chimera h-rpMOR-wt; type: cell-based, human / Rana pipiens; conditions: Table 3, HEK 293T cells
# [5] = test system: h-rpMOR-E2h (h-rpMOR-EL2h); test: Inhibition of isoproterenol-stimulated cAMP response, chimera h-rpMOR-E2h; type: cell-based, human / Rana pipiens; conditions: for EC50 / log EC50 ±SEM: Table 3, h-rpMOR-E2h, HEK 293T cells
# [6] = test system: h-rpMOR-E3h (h-rpMOR-EL3h); test: Inhibition of isoproterenol-stimulated cAMP response, chimera h-rpMOR-E3h; type: cell-based, human / Rana pipiens; conditions: for EC50 / log EC50 ±SEM: Table 3, h-rpMOR-E3h, HEK 293T cells
# [7] = target: rpMOR; test: Competition binding with radiolabeled diprenorphine, rpMOR; set-up: species or system Rana pipiens; conditions: Table 3, [3H]-diprenorphine competition
# [8] = target: h-rpMOR-wt; test: Competition binding with radiolabeled diprenorphine, h-rpMOR-wt; set-up: species or system human / Rana pipiens; conditions: Table 3, [3H]-diprenorphine competition
# [9] = target: h-rpMOR-E2h (h-rpMOR EL2h); test: Competition binding with radiolabeled diprenorphine, h-rpMOR-E2h; set-up: species or system human / Rana pipiens; conditions: Table 3, [3H]-diprenorphine competition
# [10] = target: h-rpMOR-E3h; test: Competition binding with radiolabeled diprenorphine, h-rpMOR-E3h; set-up: species or system human / Rana pipiens; conditions: Table 3, [3H]-diprenorphine competition
# [11] = test system: three tested frog ORs; test: cAMP inhibition, the three tested frog ORs; type: cell-based, Rana pipiens; conditions: frog KOR, MOR, DOR; cAMP assay
# [12] = test system: ORs in the brains and spinal cord; conditions: Rana pipiens tissue; cited from earlier work
# [13] = target: Human DOR (Homo sapiens, UniProt P41143); test: cell-based
# Sequence of Human DOR (P41143 whole entry): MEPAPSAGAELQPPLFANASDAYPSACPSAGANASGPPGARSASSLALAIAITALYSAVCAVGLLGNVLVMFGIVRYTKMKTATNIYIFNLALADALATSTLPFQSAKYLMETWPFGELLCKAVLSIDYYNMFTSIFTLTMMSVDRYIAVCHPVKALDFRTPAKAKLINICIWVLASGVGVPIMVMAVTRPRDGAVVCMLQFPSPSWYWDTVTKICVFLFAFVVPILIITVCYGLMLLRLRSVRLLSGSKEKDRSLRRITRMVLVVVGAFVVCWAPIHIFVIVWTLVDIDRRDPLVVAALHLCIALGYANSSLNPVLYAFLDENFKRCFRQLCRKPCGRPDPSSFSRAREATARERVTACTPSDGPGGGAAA
# [14] = test system: human DOR; conditions: human (but not murine) DOR; cited from earlier work
# [15] = target: Human KOR (Homo sapiens, UniProt P41145); test: cell-based
# Sequence of Human KOR (P41145 whole entry): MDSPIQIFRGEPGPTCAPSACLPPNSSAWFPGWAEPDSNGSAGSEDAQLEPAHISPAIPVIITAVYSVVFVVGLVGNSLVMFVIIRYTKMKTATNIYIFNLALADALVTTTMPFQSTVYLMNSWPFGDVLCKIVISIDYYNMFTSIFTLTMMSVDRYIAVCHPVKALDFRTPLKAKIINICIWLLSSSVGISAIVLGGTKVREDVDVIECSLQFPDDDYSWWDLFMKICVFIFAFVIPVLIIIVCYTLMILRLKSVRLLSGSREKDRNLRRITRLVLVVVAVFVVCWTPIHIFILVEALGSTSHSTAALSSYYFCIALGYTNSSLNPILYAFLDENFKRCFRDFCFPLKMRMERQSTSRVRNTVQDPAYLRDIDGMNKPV
# [16] = test system: human DOR (Leu300Trp); test: Inhibition of cAMP response, hDOR Leu300Trp mutant; type: cell-based; conditions: hDOR Leu300Trp vs hDOR
# [17] = test system: rpDOR Trp301Leu (7.35); test: Functional and binding studies, rpDOR mutant Trp301Leu; type: cell-based, Rana pipiens
# [18] = test system: rpDOR mutants Met287Leu, Asn294Asp and Tyr296Leu; test: Functional studies, rpDOR mutants Met287Leu, Asn294Asp and Tyr296Leu; type: cell-based, Rana pipiens; conditions: data not shown
# [19] = relative to chimera with humanized N-terminus only
# Sequence of Frog MOR (rpMOR) (Q7T069 1-388): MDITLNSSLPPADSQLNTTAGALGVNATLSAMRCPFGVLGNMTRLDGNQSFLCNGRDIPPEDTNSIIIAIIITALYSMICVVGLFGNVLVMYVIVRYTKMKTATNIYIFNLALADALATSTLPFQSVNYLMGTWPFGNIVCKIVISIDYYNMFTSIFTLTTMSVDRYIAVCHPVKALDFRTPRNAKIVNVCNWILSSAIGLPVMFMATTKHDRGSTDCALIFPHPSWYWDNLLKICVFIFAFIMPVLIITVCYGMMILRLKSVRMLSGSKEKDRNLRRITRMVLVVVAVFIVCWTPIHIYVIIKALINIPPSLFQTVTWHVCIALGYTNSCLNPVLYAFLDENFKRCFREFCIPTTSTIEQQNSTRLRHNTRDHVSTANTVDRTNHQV
compound,measurement,setting,value
"CC(C)C[C@@H](NC(=O)[C@H](Cc1ccccc1)NC(=O)CNC(=O)[C@@H](C)NC(=O)[C@@H](N)Cc1ccc(O)cc1)C(=O)O [DADLE, [D-Ala^2,D-Leu^5]-enkephalin]",EC50,[1]; EC50,480 nM
same,EC50,[1]; log EC50 ±SEM,501 nM
same,log EC50 ±SEM,[2],−6.5±0.06 logM
same,EC50,[2],353 nM
"C[C@@H](NC(=O)[C@@H](N)Cc1ccc(O)cc1)C(=O)NCC(=O)N(C)[C@@H](Cc1ccccc1)C(=O)NCCO [DAMGO, [D-Ala^2,N-MePhe^4,Gly-ol]-enkephalin]",EC50,"[3]; EC50, Table 2, HEK 293T cells, NA = not active",2400 nM
same,EC50,"[3]; log EC50 ±SEM, Table 2, HEK 293T cells",2510 nM
same,EC50,[1]; EC50,1500 nM and 1900 nM
same,EC50,[1]; log EC50 ±SEM,1580 nM and 2000 nM
same,EC50,[4],96 nM
same,log EC50 ±SEM,[4],−7.0 ± 0.08 M
same,EC50,[5],81 nM
same,log EC50 ±SEM,[5],−7.1 ± 0.07 M
same,EC50,[6],22 nM
same,log EC50 ±SEM,[6],−7.7 ± 0.07 M
same,Ki,[7],160 nM
same,Ki,[8],100 nM
same,Ki,[9],80 nM
same,Ki,[10],120 nM
"CC(C)[C@H](NC(=O)[C@H](CC(=O)O)NC(=O)[C@H](Cc1ccccc1)NC(=O)[C@@H](C)NC(=O)[C@@H](N)Cc1ccc(O)cc1)C(=O)N[C@H](C(=O)NCC(N)=O)C(C)C [Deltorphin C, Tyr-D-Ala-Phe-Asp-Val-Val-Gly-NH2]",agonist activity at the three tested frog ORs,[11],inactive
C[C@@H](NC(=O)[C@@H](N)Cc1ccc(O)cc1)C(=O)N[C@@H](Cc1ccccc1)C(=O)NCC(=O)N[C@@H](Cc1ccc(O)cc1)C(=O)N1CCC[C@H]1C(=O)N[C@@H](CO)C(N)=O [Dermorphin],EC50,[4],230 nM
same,log EC50 ±SEM,[4],−6.7 ± 0.08 M
same,EC50,[5],40 nM
same,log EC50 ±SEM,[5],−7.4 ± 0.07 M
same,enhancement of receptor activation by humanization of EL2,[5]; [19],~ 10 fold
same,EC50,[6],130 nM
same,log EC50 ±SEM,[6],−6.9 ± 0.1 M
same,enhancement of receptor activation by humanization of EL3,[6]; [19],~ 2 fold
same,Ki,[7],1640 nM
same,Ki,[9],112 nM
same,affinities to ORs in the brains and spinal cord,[12],30 to 80 µM
CC(C)C[C@H](NC(=O)[C@H](Cc1ccccc1)NC(=O)CNC(=O)CNC(=O)[C@@H](N)Cc1ccc(O)cc1)C(=O)N[C@@H](CCCN=C(N)N)C(=O)N[C@@H](CCCN=C(N)N)C(=O)N[C@@H](CCC(N)=O)C(=O)N[C@@H](Cc1ccccc1)C(=O)N[C@@H](CCCCN)C(=O)N[C@H](C(=O)N[C@H](C(=O)N[C@H](C(=O)O)[C@@H](C)O)C(C)C)C(C)C [Dynorphin B],EC50,[3]; EC50,170 nM
same,EC50,[3]; log EC50 ±SEM,158 nM
same,EC50,[1]; EC50,5200 nM
same,EC50,[1]; log EC50 ±SEM,5010 nM
same,EC50,[13]; EC50,360 nM
same,EC50,[13]; log EC50 ±SEM,398 nM
NC(=O)[C@H](Cc1ccccc1)NC(=O)[C@H](Cc1c[nH]c2ccccc12)NC(=O)[C@@H]1CCCN1C(=O)[C@@H](N)Cc1ccc(O)cc1 [Endomorphin 1],EC50,[1]; EC50,381 nM and 360 nM
same,EC50,[1]; log EC50 ±SEM,398 nM and 316 nM
same,EC50,[4],43 nM
same,log EC50 ±SEM,[4],−7.4 ± 0.07 M
same,EC50,[5],95 nM
NC(=O)[C@H](Cc1ccccc1)NC(=O)[C@H](Cc1ccccc1)NC(=O)[C@@H]1CCCN1C(=O)[C@@H](N)Cc1ccc(O)cc1 [Endomorphin 2],EC50,[1]; EC50,782 nM and 920 nM
same,EC50,[1]; log EC50 ±SEM,794 nM and 1000 nM
same,EC50,[4],93 nM
same,EC50,[5],190 nM
same,log EC50 ±SEM,[5],−6.7 ± 0.32 M
same,EC50,[6],32 nM
DIPP-NH2,agonist activity,[14],weak partial agonist activity
YGGFIRKPDKYKFLNA [Xendorphin],activity at frog and human KORs compared,[3],equally active
YGGFLRKYPK [α-Neoendorphin],EC50,[15]; EC50,11 nM
same,EC50,[15]; log EC50 ±SEM,10 nM
same,fold less potent at the frog KOR,[3],10 fold
same,EC50,[3]; EC50,78 nM
same,EC50,[3]; log EC50 ±SEM,79.4 nM
same,EC50,[13]; EC50,1600 nM
same,EC50,[13]; log EC50 ±SEM,1580 nM
same,log EC50 ±SEM,[2],−5.8±0.08 logM
same,EC50,[2],1600 nM
deltorphin,decrease of potency by the L300W mutation,[16],~2000 fold
same,response of the mutant compared to rpDOR,[17],substantially increased potency and affinity
same,response of the mutants,[18],did not respond
same,affinities to ORs in the brains and spinal cord,[12],30 to 80 µM

# — publication PMC4507497 (Chemistry & biology, 2015)
